Measurements as given in ChEMBL document CHEMBL3507680, “University of Dundee, Gates Library screen for HepG2 cell viability”.

assay: Human HepG2 cell viability assay in 384 well format; format: toxicity, cell-based; design: dose 125 nL, time 70.5 hour; concentration not given beside the values; conditions: HepG2 cells, read-out: Inhibition

Row | Structure (SMILES) | cytotoxicity at 70.5 h
1 | O=C(CC1=CCCCC1)NCc1ccnc(OC2CCOCC2)c1 | -6.35%
2 | Cn1ccnc1SC1CCc2ccccc2NC1=O (stereo not given) | -23.5%
3 | O=C1OCCN1Cc1cccc(C(F)(F)F)c1F | -10.3%
4 | CN(C)S(=O)(=O)N1CCC2(COCc3cnc(-c4ccccc4)nc32)C1 (stereo not given) | -23.1%
5 | O=C(COc1ccccc1)N(Cc1ccncc1)C1CC1 | -8.79%
6 | CN(C)c1ccc(NC(=O)N2CCCC2c2ccsc2)cn1 (stereo not given) | -12.1%
7 | Cc1ccsc1CNC(=O)CCc1c(C)nc2cc(O)nn2c1C | -10.8%
8 | CC(C)(C)CN1CCCC2(CCN(C(=O)c3ccc(O)nc3)C2)C1 (stereo not given) | -7.83%
9 | CCS(=O)(=O)c1ccccc1N1CCC(NC(=O)NC2CCCC2)CC1 | -14.2%
10 | COc1ccc(F)cc1S(=O)(=O)NCC(c1cccn1C)N(C)C (stereo not given) | -1.76%
11 | Cn1ccc(C(=O)N2CCCC2c2cc[nH]n2)n1 (stereo not given) | 25.1%
12 | Cc1cccc(C(=O)N2CCCN(CCc3scnc3C)CC2)c1 | -10.5%
13 | CN(CC(C)(C)O)C(=O)Nc1ccc(F)c(-n2cccc2)c1 | -9.2%
14 | CCOCC1CN(C(=O)c2cnoc2C)Cc2cnn(C)c21 (stereo not given) | -12.5%
15 | Cc1nc(C(C)(C)NC(=O)Nc2ccccc2)no1 | 1.88%
16 | Cn1c(C2CCCN2C(=O)CN2CCCC2=O)nc2ccccc21 (stereo not given) | -3.63%
17 | CCc1cnc(NC2CCc3c(ccc(=O)n3C)C2)nc1 (stereo not given) | -5.8%
18 | COC(=O)C(C)(C)NC(=O)C1CC(=O)N(CC(C)C)C1 (stereo not given) | -0.314%
19 | Cc1cc(CC(=O)NCC(O)c2ccc(OC(F)F)cc2)n[nH]1 (stereo not given) | -4.53%
20 | c1cc(CCNc2ncnc3c2CCN(Cc2ccoc2)CC3)ccn1 | 0.564%
21 | O=C(NCCc1cc(F)ccc1F)NC(CO)c1ccccc1 (stereo not given) | 19.3%
22 | CN1CC2(CCN(c3ncnc4c3CCNC4)CC2)OC1=O | -9.3%
23 | O=C(c1ccc(=O)[nH]c1)N1C[C@@H]2CC[C@H](C1)N(Cc1ccccc1)C2 | -8.28%

Row | Structure (SMILES) | cytotoxicity at 70.5 h
24 | NC(=O)CN1CCCN(C(=O)CCOc2ccccc2Cl)CC1 | -6.92%
25 | CC(C(=O)NCc1ccnc(N2CCOCC2)c1)n1cccn1 (stereo not given) | -10.1%
26 | CC(C)C(Sc1ccccc1)C(=O)N(C)Cc1nnc2n1CCC2 (stereo not given) | 25.6%
27 | Cc1cc2nc(C(C)C)cc(N3CCN(c4ccc(O)cc4)CC3)n2n1 | -1.87%
28 | CCOCCN1CCN([C@@H]2c3ccccc3C3(CCNCC3)[C@H]2O)CC1 | 28.9%
29 | COC(=O)c1sc2cccc(F)c2c1CNC(=O)C1CC1 | 1.14%
30 | CC(C)c1cc(C(=O)NCCc2nc3c(s2)CCC3)n(C)n1 | 8.71%
31 | CC(C)N(Cc1ccc(C#N)cc1)Cc1nnsc1Cl | -15.5%
32 | Fc1ccc(CCC2CCCN(Cc3c[nH]cn3)C2)c(F)c1 (stereo not given) | -3.29%
33 | CNC(=O)CCNC(=O)CCc1c(C)nc2cc(O)nn2c1C | -4.97%
34 | CCNS(=O)(=O)C1CCN(C(=O)c2ccc(F)cc2)C1 (stereo not given) | 1.22%
35 | CCOc1cc(C)nc(N2CCN(C(=O)CC)CC2)n1 | -8.45%
36 | O=C(CCCNc1ncccn1)N1CCCC(n2cccn2)C1 (stereo not given) | 34.1%
37 | COCCN(C)C[C@@H]1CN(C(=O)NC2CCCCC2)C[C@@H]1CO | -8.61%
38 | O=C(NC1CC1)c1cc(Sc2ncccn2)ccn1 | -14.6%
39 | CCc1onc(C)c1C(=O)N1CCN(c2ncc3c(n2)CCOC3)CC1 | -1.33%
40 | CC1CCN(C[C@H]2CN3CC[C@H]2C[C@@H]3CNC(=O)Nc2ccsc2)CC1 | 10.5%
41 | CCC[C@H]1CN(C(=O)CCn2ccccc2=O)C[C@@H]1NS(C)(=O)=O | -16.2%
42 | CN1CC2(CCCN(c3cc(N4CCCCC4)ncn3)C2)OC1=O (stereo not given) | 12.1%
43 | CCOC1CCN(C(=O)CN(C)c2cnccn2)CC1 | -4.29%
44 | Cc1ccccc1C(=O)NCc1ccc(N2CCNC(=O)C2)cc1 | -10.2%
45 | O=C(CC1CC1)NCc1cc(=O)n2c(n1)CN(Cc1ccoc1)CCC2 | -5.33%
46 | CC(C)N(C(=O)N1CCn2cncc2C1)C(C)C | 1.59%

Row | Structure (SMILES) | cytotoxicity at 70.5 h
47 | CCN1CCN(C(=O)CCC2CCN(C(C)CSC)CC2)CC1 (stereo not given) | 3.5%
48 | Cc1ccccc1C(=O)N1CC(C(=O)NCC2CC2)C2(CCOCC2)C1 (stereo not given) | -1.13%
49 | CCCc1ncc(CNC2(c3ccc(Cl)cc3)CC2)cn1 | -4.1%
50 | CCCn1nnc(NCc2ccc(-c3ccc(Br)cc3)o2)n1 | -11.9%
51 | CNC[C@H]1CC[C@H](c2cc(CN(C)S(=O)(=O)N(C)C)n(C)n2)CC1 | -3.44%
52 | CC(C)N(Cc1ccccc1)Cc1nnsc1Cl | -8.66%
53 | O=S(=O)(C1CC1)N1CC[C@]2(C[C@@H](Oc3ncccc3F)CO2)C1 | 6.64%
54 | CS(=O)(=O)NCc1ccc(C(=O)NCc2ccc3c(c2)CCC3)o1 | -7.15%
55 | Cc1noc(C)c1CN(C)c1ncnc2ccccc12 | -6.84%
56 | O=C(CCCc1nnc(-c2ccccc2)o1)N1CCN(C2CC2)CC1 | 0.0439%
57 | Cc1ccoc1C(=O)N1CCC(n2cc(-c3ccsc3)nn2)CC1 | -12.5%
58 | Cc1ccc(C)c(OCc2cc(C(=O)N(C)CC(O)CO)no2)c1 (stereo not given) | -4.59%
59 | CC(C)OCCCNC(=O)C1CCC(=O)N(C2CCCC2)C1 (stereo not given) | 17.3%
60 | O=C1CN(C(=O)C2CN(c3ccccc3)CCO2)CCN1 (stereo not given) | -5.72%
61 | Cc1csc(CN(CC2CCCO2)C(=O)c2ccc(C)nc2C)n1 (stereo not given) | 15.4%
62 | Cc1cnc(-c2nc(C3CCN(Cc4ccccc4Cl)CC3)no2)cn1 | -3.18%
63 | CCc1cc(O)n2nc(C3CCN(C(=O)c4ccccn4)CC3)cc2n1 | -0.453%
64 | CCC(CC)C(=O)Nc1ccc2oc(=O)n(CCN(C)C)c2c1 | 12.5%
65 | COCCn1c(C(=O)NCc2n[nH]c(C)n2)cc2ccccc21 | -0.294%
66 | COCCN(Cc1ccc(F)cc1Cl)C(=O)c1csnn1 | -2.37%
67 | Cc1cnc(NCC(C)(C)N2CCOCC2)nc1 | -4.82%
68 | CC(C)c1cnc(CN(C)C2CCN(CCc3ccccn3)C2)o1 (stereo not given) | 13.1%
69 | CCCNC(=O)CN1CCN(Cc2csc(C(C)(C)C)n2)CC1 | 4.04%

Row | Structure (SMILES) | cytotoxicity at 70.5 h
70 | O=C(Nc1nc(-c2ccccc2)ns1)N1CC[C@H](O)C1 | -9.25%
71 | CNC(=O)CCc1cc(C2CCCN2S(C)(=O)=O)nc(C)n1 (stereo not given) | -12.2%
72 | O=C(c1cccc(C2CCNC2)c1)N1CCC(N2CCC(O)CC2)CC1 (stereo not given) | 44.2%
73 | O=C1NCC2=C1C(c1ccccc1)Nc1ccccc1N2 (stereo not given) | -2.81%
74 | Cn1ncc2c1C(COCC1CC1)N(C(=O)c1ccncn1)CC2 (stereo not given) | 5.78%
75 | Cc1nc(CN2CCCN(C(=O)CC(C)n3cccc3)CC2)cs1 (stereo not given) | -12.7%
76 | O=C(c1cccc(Cn2ccnc2)c1)N1CCCC(n2ccnc2)C1 (stereo not given) | -16.1%
77 | CC(=O)N1CCN(C(C)C)CC(COc2ccccc2)C1 (stereo not given) | -6.04%
78 | Cc1n[nH]c2c1C(c1ccc(O)cc1)SCC(=O)N2 (stereo not given) | -11%
79 | CSCCC(CO)NC(=O)c1sc(-c2ccccc2Cl)nc1C (stereo not given) | -23.9%
80 | CN1CCN(C2CCN(Cc3cn4ccccc4n3)CC2)C1=O | 19.5%
81 | COCC(=O)N1C[C@H]2CCCC(OCc3cccnc3)[C@H]2C1 (stereo not given in full) | -6.29%
82 | O=C(Cn1cccn1)N1CCc2[nH]nc(-c3ccc4c(c3)OCO4)c2C1 | -7.87%
83 | CC(NC(=O)C1CCN(S(N)(=O)=O)CC1)c1cccc(OC(F)F)c1 (stereo not given) | -1.7%
84 | O=C(CN1CCNC1=O)N1CCc2nnc(-c3ccccc3)n2CC1 | -1.95%
85 | CN(Cc1ccc(O)cc1)C(=O)NC1CCCN(c2ncccn2)C1 (stereo not given) | -3.14%
86 | COc1ncccc1C(=O)N1CC[C@H]2C[C@@H](c3nccs3)O[C@@H]2C1 | -23.1%
87 | CC(C(N)=O)S(=O)(=O)Cc1cc(Cl)c2c(c1)OCO2 (stereo not given) | -12.5%
88 | Cc1nc(CN2CCOCC3(CCN(c4ncccn4)C3)C2)cs1 (stereo not given) | -3.76%
89 | CC(=O)N1CCC(CCNC(C)c2cc(C)cc(C)c2)CC1 (stereo not given) | 3.75%
90 | O=C(O)CC1COCCN1Cc1ccccc1OCCc1ccccc1 (stereo not given) | -3.62%
91 | CNC(=O)Cn1ccc2ccc(NC(=O)C(C)CSC)cc21 (stereo not given) | -5.03%
92 | CCN(CC)CC1CN(Cc2ccco2)Cc2nccn2C1 (stereo not given) | -4.92%

Row | Structure (SMILES) | cytotoxicity at 70.5 h
93 | CCc1nc(C2CCCN2C(=O)CCc2nc(C3CC3)no2)no1 (stereo not given) | -1.64%
94 | COCCn1/c(=N\C(=O)CN(C)S(C)(=O)=O)sc2cc(C)ccc21 | 14.4%
95 | COc1ccc(-c2cnc(CN3CCn4c(C)nnc4C3)o2)cc1 | 22.7%
96 | c1cnn(Cc2nnc3n2CCCN(c2nccs2)C3)c1 | 12.8%
97 | c1ccc(COC[C@H]2CCC[C@@]23CNCCO3)nc1 | 15.4%
98 | CN(C)c1ccc(CNC2(c3ccc(F)cc3)CCOCC2)cc1F | -7.63%
99 | COc1cc2cc(C)c(SCCN3CCCCC3)nc2cc1OC | 4.15%
100 | O=C(NCc1cnn(-c2ccc(F)cc2F)c1)C1CCCO1 (stereo not given) | -1.57%
101 | CC(C)C(=O)N1CCC(c2nc3ccccn3c2NC(C)(C)C)CC1 | -10.5%
102 | COCCn1ccc2ccc(C(=O)O)cc21 | -9.99%
103 | O=C(O)CNC(=O)Cc1csc(-c2cccc(Cl)c2)n1 | 21.1%
104 | COc1ccc(CNCC2CNc3ccnn3C2)cn1 (stereo not given) | -3.27%
105 | CCn1cnnc1C1CCCN(C(=O)COc2ccc(Cl)cc2)C1 (stereo not given) | -5.18%
106 | CC(C)c1nc(CNC2CCN(S(C)(=O)=O)CC2)cs1 | 20.3%
107 | O=C1N(Cc2ccc(F)c(F)c2)CCCC1(O)CNCc1ncc[nH]1 (stereo not given) | -1.39%
108 | CC(C)OCCOCc1cccc(NC(=O)NCc2ccncc2)c1 | 2.35%
109 | Cc1nc(CSCCC(=O)NCc2ccc(N(C)C)cc2)cs1 | -3.76%
110 | COC1CC2(CCN(Cc3ccc4c(c3)OCO4)CC2)C1 | -12.6%
111 | Cc1nocc1C(=O)N1CCOC2(COCCN(CC3CC3)C2)C1 (stereo not given) | -2.08%
112 | CC(C)NC(=O)[C@@H]1CN(C(=O)C2CC2)C[C@]12Cc1ccccc1C(=O)N2 | -3.78%
113 | CC(C)CCCNC(=O)Nc1ccc(F)c(C(N)=O)c1 | 2.14%
114 | Cc1nn(C)c(C)c1CN(CCO)C(=O)C1COc2ccccc2C1 (stereo not given) | 30%
115 | CC(C)[C@]1(O)CN(C(=O)C2(Cn3cccn3)CC2)C[C@H]1C | -7.77%
